IC50 and Safety margin data for seven compounds are collected here from patent publication US9663463B2, “3-azabicyclo[3.1.0]hexane derivative and use thereof for medical purpose” (priority 2013, dated 2017).

As usually defined, the IC50 is the concentration that gives 50% inhibition. A lower IC50 goes with higher potency.

Counter-ions that a name gives are not always drawn.

One data set deals with hERG current (Homo sapiens (Human), UniProt Q12809). The data set is described as follows: cell-based. The source says: A: the suppression rate (%) of the test substance in each cell
B: the average suppression rate (%) of the vehicle control group

Another data set has as its target human μ-opioid receptor (Homo sapiens (Human), UniProt P35372). The data set is described as follows: Antagonist activity test using [35S]-GTPγS bond as index using human μ-opioid receptor-expressing cell membrane. In kind it is biochemical. A general note: GTPγS resists hydrolysis and so accumulates on activated G proteins.
The next data set addresses hERG (Homo sapiens (Human), UniProt Q12809). In words: Safety margin against hERG inhibitory activity. As to conditions: hERG IC50×1000/{concentration in plasma at ED50×(1−protein binding rate/100)}. As to the method:
In order to compare the risks of extension of QT interval prolongation in the electrocardiogram among the test substances, the safety margins against the hERG inhibitory effect were calculated. […] Therefore, the following formula was used for calculating the safety margin, and the obtained values were described in Table 7. Safety margin against hERG inhibitory effect=IC50×1000/{concentration in plasma×(1−protein binding rate/100)}
IC50: the IC50 value in a hERG inhibition assay (μM)
Plasma concentration: the plasma concentration of test substance (nM) at the ED50 value in the test for evaluating the anti-pruritic effect in the morphine model
Protein binding rate: the protein binding rate (%) in the protein binding assay in murine serum

hERG current, sequence (Q12809 whole entry): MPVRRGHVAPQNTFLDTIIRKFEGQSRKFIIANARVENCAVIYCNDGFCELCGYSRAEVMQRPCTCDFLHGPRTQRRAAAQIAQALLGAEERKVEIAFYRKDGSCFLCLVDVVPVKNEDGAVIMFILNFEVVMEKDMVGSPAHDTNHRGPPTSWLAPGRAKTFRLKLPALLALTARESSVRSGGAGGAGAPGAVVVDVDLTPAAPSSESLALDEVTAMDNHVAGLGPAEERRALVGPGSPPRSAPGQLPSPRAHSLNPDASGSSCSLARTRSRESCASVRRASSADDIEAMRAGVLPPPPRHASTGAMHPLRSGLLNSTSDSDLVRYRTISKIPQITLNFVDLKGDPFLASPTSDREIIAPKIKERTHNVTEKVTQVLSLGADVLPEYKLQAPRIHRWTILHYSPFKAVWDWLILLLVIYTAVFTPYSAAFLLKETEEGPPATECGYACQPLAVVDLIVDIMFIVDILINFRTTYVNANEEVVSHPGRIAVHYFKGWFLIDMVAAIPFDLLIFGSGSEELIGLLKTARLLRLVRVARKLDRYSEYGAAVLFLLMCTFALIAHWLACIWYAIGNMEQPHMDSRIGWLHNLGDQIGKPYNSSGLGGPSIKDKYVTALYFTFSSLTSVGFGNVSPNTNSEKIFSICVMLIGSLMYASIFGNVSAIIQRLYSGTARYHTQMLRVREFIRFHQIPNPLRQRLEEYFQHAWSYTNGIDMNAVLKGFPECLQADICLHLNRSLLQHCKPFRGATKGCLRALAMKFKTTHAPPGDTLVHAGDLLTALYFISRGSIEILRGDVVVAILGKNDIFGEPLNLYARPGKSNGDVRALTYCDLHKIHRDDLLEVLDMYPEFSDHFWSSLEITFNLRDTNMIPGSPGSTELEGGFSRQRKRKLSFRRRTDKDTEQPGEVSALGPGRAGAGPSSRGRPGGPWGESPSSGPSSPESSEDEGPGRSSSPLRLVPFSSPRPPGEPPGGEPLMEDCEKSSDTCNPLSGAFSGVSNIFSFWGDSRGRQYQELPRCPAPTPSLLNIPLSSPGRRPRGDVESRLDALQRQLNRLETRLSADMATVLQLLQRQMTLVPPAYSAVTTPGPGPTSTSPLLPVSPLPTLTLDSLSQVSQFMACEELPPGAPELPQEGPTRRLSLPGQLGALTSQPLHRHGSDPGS

Turning to `CC[C@]1(c2cc(NS(=O)(=O)C3CC3)ccc2F)[C@@H]2CN(CC3(O)Cc4ccccc4C3)C[C@@H]21` [Example 2-(b), N-(3-{(1R,5S,6r)-6-ethyl-3-[(2-hydroxy-2,3-dihydro-1H-inden-2-yl)methyl]-3-azabicyclo[3.1.0]hexan-6-yl}-4-fluorophenyl)cyclopropanesulfonamide hydrochloride], the concentration for half-maximal inhibition (IC50) on hERG current is 160 nM; at human μ-opioid receptor it was 2 nM. In addition, the Safety margin on hERG amounted to 1250.

Take `CC[C@]1(c2cccc(NS(=O)(=O)C3CC3)c2)[C@@H]2CN(CCCC3CCC(F)(F)CC3)C[C@@H]21` [Example 4-(b), N-(3-{(1R,5S,6r)-3-[3-(4,4-difluorocyclohexyl)propyl]-6-ethyl-3-azabicyclo[3.1.0]hexan-6-yl}phenyl)cyclopropanesulfonamide hydrochloride]: the figures for the IC50 against hERG current and on human μ-opioid receptor were 94 nM and 1.5 nM, respectively. Besides, the Safety margin at hERG is reported as 157.

On to `CC[C@]1(c2cc(NS(=O)(=O)C3CC3)ccc2F)[C@@H]2CN(CCCC3CCC(F)(F)CC3)C[C@@H]21` [Example 5-(b), N-(3-{(1R,5S,6r)-3-[3-(4,4-difluorocyclohexyl)propyl]-6-ethyl-3-azabicyclo[3.1.0]hexan-6-yl}-4-fluorophenyl)cyclopropanesulfonamide hydrochloride], for which the IC50 at hERG current worked out at 89 nM; on human μ-opioid receptor, 1.6 nM. Besides, the Safety margin at hERG was found to be 153.

Turning to `CC[C@]1(c2cccc(NS(=O)(=O)C3CC3)c2)[C@@H]2CN(CCCN3CCC(F)(F)C3)C[C@@H]21` [Example 8-(b), N-(3-{(1R,5S,6r)-3-[3-(3,3-difluoropyrrolidin-1-yl)propyl]-6-ethyl-3-azabicyclo[3.1.0]hexan-6-yl}phenyl)cyclopropanesulfonamide hydrochloride], the IC50 on hERG current stood at 340 nM; on human μ-opioid receptor it was 2.9 nM. Besides, the Safety margin on hERG is listed as 99.

Take `CC[C@]1(c2cc(F)cc(NS(=O)(=O)C3CC3)c2)[C@@H]2CN(CC3(O)Cc4ccccc4C3)C[C@@H]21` [Example 10-(b), N-(3-{(1R,5S,6r)-6-ethyl-3-[(2-hydroxy-2,3-dihydro-1H-inden-2-yl)methyl]-3-azabicyclo[3.1.0]hexan-6-yl}-5-fluorophenyl)cyclopropanesulfonamide hydrochloride]: the values for the IC50 against hERG current and against human μ-opioid receptor were 62 nM and 3.2 nM, respectively. The compound also registered a Safety margin at hERG of 5.

On to `CC[C@]1(c2cc(NS(=O)(=O)C3CC3)ccc2F)[C@@H]2CN(CCCN3CCC(F)(F)CC3)C[C@@H]21` [Example 15-(b), N-(3-{(1R,5S,6r)-3-[3-(4,4-difluoropiperidin-1-yl)propyl]-6-ethyl-3-azabicyclo[3.1.0]hexan-6-yl}-4-fluorophenyl)cyclopropanesulfonamide hydrochloride], for which the values for the IC50 against hERG current and against human μ-opioid receptor were 1300 nM and 1.7 nM, respectively. The compound also came in with a Safety margin on hERG of 182.

Take `CC[C@]1(c2cccc(NS(=O)(=O)C3CC3)c2)[C@@H]2CN(CCCN3CCCC(F)(F)C3)C[C@@H]21` [Example 16-(b), N-(3-{(1R,5S,6r)-3-[3-(3,3-difluoropiperidin-1-yl)propyl]-6-ethyl-3-azabicyclo[3.1.0]hexan-6-yl}phenyl)cyclopropanesulfonamide hydrochloride]: the IC50 on hERG current worked out at 640 nM; at human μ-opioid receptor, 3.1 nM. This compound displayed a Safety margin at hERG of 58.
